Key:
ABCF1 [1] = assay: qPCR of ABCF1 transcription in macrophage cell line RAW264.7 (dose response / time course); assay type: cell-based; conditions: 10 nM, 100 nM, 500 nM, 2 hours, normalized against GAPDH
Procedure: FIG. 3 illustrates the effect of psylocibin, psylocin and their analogs on ABCF1 transcription in a macrophage cell line. Briefly, the Macrophage cell line RAW264.7 (ATCC) were grown to 80% confluency in growth media (DMEM+ 10% FBS+ glutamine). Dilutions of psylocibin, psylocin and their analogs were made at desired final concentrations for a Dose response experiment. The concentrations' used for this experiment are: 10 nM, 100 nM, 500 nM for Psilocin, Psylocibin, 4-Acetoxy-N, N-dimthyltryptamine, O-Acetyl Psilocin Fumerate, and 4-acetoxyindole. The cells were incubated for 2 hours and then harvested for total RNA, which was extracted for real time RT-PCR specific for ABCF1. Untreated cells were used as negative control and Escitalopram at 0.3 mM was used as a positive control to activate ABCF1 expression for all the experiments. ES=escitalopram; PSYB=Psylocibin; PSIC=Psilocin; DMT=4-Acetoxy-N, N-dimthyltryptamine; APF=O-Acetyl Psilocin Fumerate, and AOI=4-acetoxyindole.
• 1. Macrophage cell line RAW264.7 (ATCC) were grown to 80% confluency in growth media (DMEM+10% FBS+glutamine). • 2. Dilutions of the drugs were made at desired final concentrations for a Dose response experiment. […]
• 1. […] Normalized against the expression level of GAPDH, the fold change expression level of ABCF1 was calculated and tabulated for all treatment conditions.

ABCF1 [2] = conditions: peripheral blood mononuclear cells of patients responding to treatment; cited from earlier work
ABCF1 [3] = assay: real time RT-PCR for ABCF1 in RAW macrophages treated with Escitalopram; assay type: cell-based; conditions: 0.3 mM Escitalopram, 1 hour
Procedure: (§1) FIG. 1 illustrates that Escitalopram induces ABCF1 in a Macrophage cell line: RAW macrophages were plated at 1×10^5 cells/well and cultured for 2 days. The cells were incubated with 0.3 mM Escitalopram for 1 hour, and then harvested for total RNA, which was extracted for real time RT-PCR specific for ABCF1 and IL-4. CT values were normalized with CT value for the housekeeping gene from the DMSO control. The difference in the expression after drug treatment is consistent with polarization towards an M2-like phenotype (data were consistent in 3 separate experiments).

IL-4 = assay: real time RT-PCR for IL-4 in RAW macrophages treated with Escitalopram; assay type: cell-based; conditions: macrophage cell line (RAW); 0.3 mM Escitalopram, 1 hour; normalized to housekeeping gene, DMSO control
Procedure: as §1

| SMILES | effect on ABCF1 transcription (ABCF1 [1]) | ABCF1 transcription in PBMCs (ABCF1 [2]) | ABCF1 induction (in words) (ABCF1 [3]; RAW macrophages) | induction of ABCF1 (ABCF1 [3]; macrophage cell line (RAW), normalized to housekeeping gene, DMSO control) | induction of IL-4 (IL-4) |
| --- | --- | --- | --- | --- | --- |
| CN(C)CCc1c[nH]c2cccc(OP(=O)(O)O)c12 [psylocibin, Psylocibin] | upregulate ABCF1 transcription |  |  |  |  |
| CN(C)CCC[C@@]1(c2ccc(F)cc2)OCc2cc(C#N)ccc21 [Escitalopram] |  | increased the transcription of a single gene: ABCF1 | induces ABCF1 | approximately 20 fold | approximately 5 fold |
| CN(C)CCc1c[nH]c2cccc(O)c12 [psylocin, Psilocin] | upregulate ABCF1 transcription |  |  |  |  |

Reference: US20250320557A1, “USE OF ABCF1 IN METHODS OF DIAGNOSING AND MONITORING INFLAMMATORY AND/OR AUTOIMMUNE DISEASE” (MYND Life Sciences Inc., priority 2021, published 2025)
